Test results published in patent US10986838B2, “Herbicides” (SYNGENTA PARTICIPATIONS AG, priority 2016, dated 2021).

Legend:
Type in all cases: in vivo
[1] = test system: Echinochloa crus-galli (ECHCG); assay: Post-emergence herbicidal activity (B2); conditions: Test B2a, 1000 g/ha, evaluated after 13 days, 5=total damage to plant, 0=no damage to plant
Procedure, shortened: (§1)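 Damage was rated 13 days after treatment, from 0 (none) to 5 (plant killed). Treatment was a foliar spray of active ingredient in 50:50 acetone/water with 0.5% Tween 20, applied to 8-day-old plants. Plants were kept at 24/16 °C with 14 h light and 65% humidity.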

Setaria faberi (SETFA) [2] = assay: Post-emergence herbicidal activity (B2); conditions: Test B2a, 1000 g/ha, evaluated after 13 days, 5=total damage to plant, 0=no damage to plant
Procedure, shortened: as §1

Avena fatua (AVEFA) [3] = assay: Post-emergence herbicidal activity (B2); conditions: Test B2a, 1000 g/ha, evaluated after 13 days, 5=total damage to plant, 0=no damage to plant
Procedure, shortened: as §1

[4] = test system: Triticum aestivium (TRZAW); assay: Post-emergence herbicidal activity (B2); conditions: Test B2a, 1000 g/ha, evaluated after 13 days, 5=total damage to plant, 0=no damage to plant
Procedure, shortened: as §1

Lolium perenne (LOLPE) [5] = assay: Post-emergence herbicidal activity (B2); conditions: Test B2a, 1000 g/ha, evaluated after 13 days, 5=total damage to plant, 0=no damage to plant
Procedure, shortened: as §1

[6] = test system: Alopecurus myosuroides (ALOMY); assay: Post-emergence herbicidal activity (B2); conditions: Test B2a, 1000 g/ha, evaluated after 13 days, 5=total damage to plant, 0=no damage to plant
Procedure, shortened: as §1

[7] = test system: Echinochloa crus-galli (ECHCG); assay: Pre-emergence herbicidal activity (B1); conditions: Test 1a, 1000 g/ha, evaluated after 13 days, 5=total damage to plant, 0=no damage to plant
Procedure, shortened: (§2)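 Glasshouse pre-emergence spray test: compound in acetone/water (50:50), 0.5% Tween 20, applied one day after sowing; plants kept at 24/16 °C day/night, 14 h light, 65% humidity, then scored 0–5 for damage after 13 days.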

Setaria faberi (SETFA) [8] = assay: Pre-emergence herbicidal activity (B1); conditions: Test 1a, 1000 g/ha, evaluated after 13 days, 5=total damage to plant, 0=no damage to plant
Procedure, shortened: as §2

Avena fatua (AVEFA) [9] = assay: Pre-emergence herbicidal activity (B1); conditions: Test 1a, 1000 g/ha, evaluated after 13 days, 5=total damage to plant, 0=no damage to plant
Procedure, shortened: as §2

[10] = test system: Triticum aestivium (TRZAW); assay: Pre-emergence herbicidal activity (B1); conditions: Test 1a, 1000 g/ha, evaluated after 13 days, 5=total damage to plant, 0=no damage to plant
Procedure, shortened: as §2

Lolium perenne (LOLPE) [11] = assay: Pre-emergence herbicidal activity (B1); conditions: Test 1a, 1000 g/ha, evaluated after 13 days, 5=total damage to plant, 0=no damage to plant
Procedure, shortened: as §2

[12] = test system: Alopecurus myosuroides (ALOMY); assay: Pre-emergence herbicidal activity (B1); conditions: Test 1a, 1000 g/ha, evaluated after 13 days, 5=total damage to plant, 0=no damage to plant
Procedure, shortened: as §2

Row | Structure (SMILES) | ECHCG damage score [1] | SETFA damage score (Setaria faberi (SETFA) [2]) | AVEFA damage score (Avena fatua (AVEFA) [3]) | TRAZW damage score [4] | LOLPE damage score (Lolium perenne (LOLPE) [5]) | ALOMY damage score [6] | ECHCG damage score [7] | SETFA damage score (Setaria faberi (SETFA) [8]) | AVEFA damage score (Avena fatua (AVEFA) [9]) | TRAZW damage score [10] | LOLPE damage score (Lolium perenne (LOLPE) [11]) | ALOMY damage score [12]
1 | CCCCCNc1ccc(-c2cncc(F)c2)nc1C(F)(F)F [Compound A54] | 3 | 5 | 3 | 0 | 2 | 0 | 3 | 5 | 1 | 0 | 1 | 0
2 | Nc1ccc(-c2cncc(F)c2)nc1-c1ccccc1 [Compound A50] | 1 | 2 | 0 | 0 | 0 | 0 | 1 | 1 | 0 | 0 | 0 | 0
3 | Fc1cncc(-c2ccc(NCc3cscn3)c(C(F)(F)F)n2)c1 [Compound A57] | 5 | 5 | 4 | 2 | 4 | 1 | 5 | 5 | 3 | 0 | 1 | 1
4 | COC(=O)c1nc(-c2cncc(F)c2)ccc1N [Compound A41] | 2 | 2 | 1 | 0 | 0 | 0 | 2 | 2 | 0 | 0 | 0 | 0
5 | Fc1cncc(-c2ccc(N3CCCC3)c(C(F)(F)F)n2)c1 [Compound A40] | 5 | 5 | 3 | 0 | 2 | 0 | 4 | 4 | 1 | 0 | 1 | 1
6 | CCCN(CCC)c1ccc(-c2cncc(F)c2)nc1C(F)(F)F [Compound A48] | 4 | 5 | 3 | 1 | 2 | 0 | 4 | 4 | 0 | 0 | 0 | 0
7 | CN(C)c1ccc(-c2cncc(F)c2)nc1C(F)(F)F [Compound A38, 6-(5-fluoro-3-pyridyl)-N,N-dimethyl-2-(trifluoromethyl)pyridin-3-amine] | 5 | 5 | 4 | 1 | 2 | 1 | 5 | 5 | 2 | 0 | 0 | 0
8 | CC(C)CCNc1ccc(-c2cncc(F)c2)nc1C(F)(F)F [Compound A53] | 5 | 5 | 3 | 1 | 3 | 1 | 4 | 5 | 1 | 1 | 2 | 1
9 | Fc1cncc(-c2ccc(NCc3cnco3)c(C(F)(F)F)n2)c1 [Compound A60] | 5 | 5 | 3 | 2 | 4 | 1 | 5 | 5 | 3 | 0 | 1 | 0
10 | Fc1cncc(-c2ccc(N3CCCC3C(F)(F)F)c(C(F)(F)F)n2)c1 (stereo not drawn) [Compound A64] | 2 | 4 | 1 | 0 | 0 | 0 | 1 | 1 | 0 | 0 | 0 | 0
11 | COc1nc(-c2cncc(F)c2)ccc1N [Compound A43] | 1 | 2 | 1 | 0 | 1 | 0 | 0 | 1 | 0 | 0 | 1 | 0
12 | Fc1cncc(-c2ccc(NC3CC3)c(C(F)(F)F)n2)c1 [Compound A46] | 4 | 4 | 3 | 1 | 2 | 1 | 2 | 4 | 1 | 0 | 0 | 0
13 | Fc1cncc(-c2ccc(NCC3CCC3)c(C(F)(F)F)n2)c1 [Compound A51, N-(cyclobutylmethyl)-6-(5-fluoro-3-pyridyl)-2-(trifluoromethyl)pyridin-3-amine] | 5 | 4 | 4 | 2 | 3 | 1 | 5 | 5 | 1 | 1 | 1 | 1
14 | Nc1ccc(-c2cncc(Cl)c2)nc1C(F)(F)F [Compound A3] | 3 | 4 | 3 | 0 | 2 | 1 | 3 | 5 | 1 | 0 | 1 | 0
15 | CN1CCN(c2ccc(-c3cncc(F)c3)nc2C(F)(F)F)CC1 [Compound A61] | 5 | 5 | 3 | 1 | 2 | 1 | 4 | 5 | 2 | 0 | 0 | 0
16 | Fc1cncc(-c2ccc(NCC3CCCCC3)c(C(F)(F)F)n2)c1 [Compound A52] | 3 | 5 | 3 | 0 | 3 | 0 | 3 | 5 | 1 | 0 | 1 | 0
17 | Fc1cncc(-c2ccc(N3CC(F)(F)C(F)(F)C3)c(C(F)(F)F)n2)c1 [Compound A62] | 3 | 5 | 3 | 0 | 2 | 0 | 3 | 5 | 1 | 0 | 0 | 0
18 | CCCCCCNc1ccc(-c2cncc(F)c2)nc1C(F)(F)F [Compound A42] | 5 | 5 | 3 | 1 | 2 | 1 | 4 | 5 | 2 | 0 | 1 | 0
19 | Cc1nc(-c2cncc(OC(F)F)c2)ccc1N [Compound A4] | 2 | 4 | 3 | 1 | 1 | 1 | 1 | 2 | 0 | 0 | 1 | 0
